According to ChEMBL document CHEMBL1130154, “Molecular modeling and 3D-QSAR studies on the interaction mechanism of tripeptidyl thrombin inhibitors with human alpha-thrombin” (J Med Chem, 1997):
Square brackets hold non-standard residues; d marks the D form. Peptide text beside a SMILES is read from it. Tic = O=C(O)[C@@H]1Cc2ccccc2CN1

biological target: Prothrombin (Homo sapiens, UniProt P00734); assay: In vitro inhibitory activity against human Prothrombin

Row | Compound | IC50
1 | C[C@H](C(=O)N1CCC[C@H]1C(=O)N[C@H](C=O)CCCNC(=N)N)c1ccccc1 | 5100 nM
2 | N=C(N)NCCC[C@@H](C=O)NC(=O)[C@@H]1CCCN1C(=O)[C@@H]1Cc2ccccc2CN1 (H-[Tic]-Pro-Arg-aldehyde) | 25 nM
3 | CO[C@@H](C(=O)N1CCC[C@H]1C(=O)N[C@H](C=O)CCCN=C(N)N)c1ccccc1 | 250 nM
4 | N=C(N)NCCC[C@@H](C=O)NC(=O)[C@@H]1CCCN1C(=O)[C@H]1NCCc2ccccc21 | 19 nM
5 | C[C@@H](C(=O)N1CCC[C@H]1C(=O)N[C@H](C=O)CCCNC(=N)N)c1ccccc1 | 94 nM
6 | CC(C)(C)OC(=O)N[C@@H](C(=O)N1CCC[C@H]1C(=O)N[C@H](C=O)CCCN=C(N)N)c1cccc(C(F)(F)F)c1 | 27 nM
7 | CC[C@@H](C(=O)N1CCC[C@H]1C(=O)N[C@H](C=O)CCCNC(=N)N)c1ccccc1 | 130 nM

Continued, values first:

Row | IC50 | Compound
8 | 85 nM | CC(C)(C)OC(=O)NC(C(=O)N1CCC[C@H]1C(=O)N[C@H](C=O)CCCN=C(N)N)c1cccc2ccccc12 (stereo in doubt; 13)
9 | 23 nM | CC(C)(C)OC(=O)N[C@@H](C(=O)N1CCC[C@H]1C(=O)N[C@H](C=O)CCCNC(=N)N)c1cccc2ccccc12
10 | 55 nM | CC(C)(C)OC(=O)NC(C(=O)N1CCC[C@H]1C(=O)N[C@H](C=O)CCCN=C(N)N)c1cccc2ccccc12 (stereo in doubt; 12)
11 | 18 nM | CC(C)(C)OC(=O)N[C@@H](C(=O)N1CCC[C@H]1C(=O)N[C@H](C=O)CCCNC(=N)N)c1ccc2ccccc2c1
